Our source for the IC50 values is patent US9303035B2, “Substituted pyrazino[1′,2′:1,2]pyrrolo[3,4-d]pyrimidines, pyrimido[4′,5′:3,4]pyrrolo[2,1-c][1,4]oxazines and pyrimido[4′,5′:3,4]pyrrolo[1,2-d][1,4]oxazepines for inhibiting the CFTR channel” (Novartis AG, priority 2012, dated 2016).

By IC50 is commonly meant the concentration at which inhibition is half-maximal.

CFTR (WT-CFTR channels stably expressed in CHO cells), sequence (P13569 whole entry): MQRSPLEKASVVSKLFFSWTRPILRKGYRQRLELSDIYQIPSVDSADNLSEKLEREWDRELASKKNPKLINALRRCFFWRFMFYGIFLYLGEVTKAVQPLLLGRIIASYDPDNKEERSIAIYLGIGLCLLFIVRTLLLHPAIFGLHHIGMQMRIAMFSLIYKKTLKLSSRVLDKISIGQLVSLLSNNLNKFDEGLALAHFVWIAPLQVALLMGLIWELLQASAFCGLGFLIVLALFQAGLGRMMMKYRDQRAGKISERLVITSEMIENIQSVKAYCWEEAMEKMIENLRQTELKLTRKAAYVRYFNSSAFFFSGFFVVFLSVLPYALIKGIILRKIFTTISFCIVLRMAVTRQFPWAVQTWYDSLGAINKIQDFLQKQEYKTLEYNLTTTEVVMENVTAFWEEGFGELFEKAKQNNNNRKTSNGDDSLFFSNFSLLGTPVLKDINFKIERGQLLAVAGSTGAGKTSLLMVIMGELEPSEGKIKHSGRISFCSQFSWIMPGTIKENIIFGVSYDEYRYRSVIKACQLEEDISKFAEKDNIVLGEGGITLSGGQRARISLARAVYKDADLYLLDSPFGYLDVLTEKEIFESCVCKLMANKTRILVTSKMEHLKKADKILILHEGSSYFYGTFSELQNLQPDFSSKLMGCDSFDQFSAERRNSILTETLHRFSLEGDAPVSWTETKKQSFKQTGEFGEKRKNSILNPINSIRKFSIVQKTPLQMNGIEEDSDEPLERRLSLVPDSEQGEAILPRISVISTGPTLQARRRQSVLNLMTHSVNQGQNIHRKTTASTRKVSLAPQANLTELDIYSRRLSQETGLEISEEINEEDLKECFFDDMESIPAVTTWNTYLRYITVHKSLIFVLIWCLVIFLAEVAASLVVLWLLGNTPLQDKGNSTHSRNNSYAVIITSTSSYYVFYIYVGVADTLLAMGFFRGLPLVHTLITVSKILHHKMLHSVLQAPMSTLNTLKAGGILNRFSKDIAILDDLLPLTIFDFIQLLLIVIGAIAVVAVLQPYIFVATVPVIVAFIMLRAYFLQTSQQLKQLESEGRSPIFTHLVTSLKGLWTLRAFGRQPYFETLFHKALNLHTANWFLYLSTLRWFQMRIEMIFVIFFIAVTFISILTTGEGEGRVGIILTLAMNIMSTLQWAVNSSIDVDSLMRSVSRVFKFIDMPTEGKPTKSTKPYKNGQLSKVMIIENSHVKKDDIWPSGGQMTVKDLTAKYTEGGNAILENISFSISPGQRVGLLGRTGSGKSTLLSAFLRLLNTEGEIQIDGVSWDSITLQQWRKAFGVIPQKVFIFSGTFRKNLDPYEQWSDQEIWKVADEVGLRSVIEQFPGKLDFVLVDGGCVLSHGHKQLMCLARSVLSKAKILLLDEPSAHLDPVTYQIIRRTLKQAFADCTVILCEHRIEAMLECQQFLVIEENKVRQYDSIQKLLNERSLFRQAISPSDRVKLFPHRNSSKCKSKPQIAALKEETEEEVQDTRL

The target of the assay is CFTR (WT-CFTR channels stably expressed in CHO cells) (Homo sapiens (Human), UniProt P13569). Briefly: IonWorks Quattro CFTR inhibitor assay (whole-cell population patch clamp, forskolin-activated current). It counts as cell-based. The settings on record: inward current (−100 mV); CHO cells stably expressing WT-CFTR; CFTR activated with 10 μM forskolin; 10 min compound incubation. An excerpt:
CFTR activity can be quantified by electrophysiology methods, using the whole-cell configuration of the patch clamp technique (Hamill O, Marty A, Neher E, Sakmann B and Sigworth F. ‘Improved patch-clamp techniques for high resolution current recording from cells and cell-free membrane patches.’ Pflugers Archive 1981 391: 85-100). This assay directly measures the currents associated with chloride flow through CFTR channels whilst either maintaining or adjusting the transmembrane voltage. This assay can use either single glass micropipettes or parallel planar arrays to measure CFTR activity from native or recombinant cell systems. Currents measured using parallel planar arrays can be quantified using an appropriately equipped instrument such as the IonWorks Quattro (Molecular Devices Corporation, Sunnyvale, Calif.). The Quattro system can measure CFTR currents from either a single cell per recording well (HT configuration) or alternatively from a population of 64 cells per well (Population Patch Clamp PPC) (Finkel A, Wittel A, Yang N, Handran S, Hughes J, Costantin J. ‘Population patch clamp improves data consistency and success rates in the measurement of ionic currents.’ J Biomol Screen. 2006 August; 11(5):488-96).
Chinese hamster ovary (CHO) cells stably expressing WT-CFTR channels were used for the IonWorks Quattro experiments. Cells were maintained at 37° C. in 5% v/v CO2 at 100% humidity in MEM alpha medium supplemented with 10% (v/v) FCS, 100 U/mL Penicillin/Streptomycin, and 100 μg/L methotrexate. For experiments, cells were grown in 225 cm^2 tissue culture flasks until almost confluent. Cells were removed from the flask using trypsin-EDTA and resuspended in extracellular recording solution for immediate experimentation.
Cells, at a density of 1.5-2 million per mL, were placed on the Quattro system, added to the planar patch plate and seals allowed to establish for 5-10 mins. After assessing seal resistances (typically >50 MΩ), whole-cell access was obtained by perforation with 100 μg/mL amphotericin B. Baseline currents were measured by a pre-compound scan obtained by application of a voltage ramp from −100 to +100 mV. CFTR was activated by the addition of 10 μM forskolin to each of the 384 wells of the patch plate. After 5 min incubation the post-compound 1 currents were measured, again by application of a voltage ramp from −100 to +100 mV. Test compounds, diluted from 10 mM stocks in DMSO in extracellular solution were then added to the patch plate and were incubated for a further 10 min. The post-compound 2 currents were measured by the application of the same voltage ramp from −100 to +100 mV. The inhibition of CFTR was determined from the difference in current between the forskolin addition (post-compound 1) and the test compound (post-compound 2). This was determined at both −100 mV and +100 mV which represents the inward and outward current respectively.
Extracellular solution (ECS): 145 mM NaCl, 4 mM CsCl, 5 mM D-glucose, 10 mM TES, 1 mM CaCl2, 1 mM MgCl2, pH 7.4 NaOH
Intracellular solution (ICS): 113 mM L-Aspartic acid, 113 mM CsOH, 27 mM CsCl, 1 mM NaCl, 1 mM MgCl2, 1 mM EGTA, 10 mM TES. pH 7.2 with CsOH. Filter sterilized before use.
The compound `Cc1csc([C@H]2O[C@@H](C)Cn3c(-c4ccccc4)c4c(=O)n(C)c(=O)n(C)c4c32)n1` [Example 12, (8S)-1,3,8-trimethyl-10-(4-methylthiazol-2-yl)-5-phenyl-7,8-dihydro-1H-pyrimido[4′,5′:3,4]pyrrolo[2,1-c][1,4]oxazine-2,4(3H,10H)-dione] displayed an IC50 of 0.6 µM.
The compound `Cn1c(=O)c2c(-c3ccccc3)n3c(c2n(C)c1=O)C(c1ccc(Cl)o1)OC(C)(C)C3` (stereo not shown) [Example 12.5, 10-(5-Chlorofuran-2-yl)-1,3,8,8-tetramethyl-5-phenyl-7,8-dihydro-1H-pyrimido[4′,5′:3,4]pyrrolo[2,1-c][1,4]oxazine-2,4(3H,10H)-dione] gave an IC50 of 0.62 µM.
The compound `Cn1c(=O)c2c(-c3ccccc3)n3c(c2n(C)c1=O)[C@H](c1nc(Cl)cs1)COCC3` [Example 13, 11-(4-chlorothiazol-2-yl)-1,3-dimethyl-5-phenyl-7,8,10,11-tetrahydropyrimido[4′,5′:3,4]pyrrolo[1,2-d][1,4]oxazepine-2,4(1H,3H)-dione] registered an IC50 of 3.53 µM.
For `Cn1c(=O)c2c(-c3cccc(C#N)c3)n3c(c2n(C)c1=O)[C@H](c1nc(Cl)cs1)CO[C@H](CO)C3` [Example 14, 3-(11-(4-chlorothiazol-2-yl)-8-(hydroxymethyl)-1,3-dimethyl-2,4-dioxo-1,2,3,4,7,8,10,11-octahydropyrimido[4′,5′:3,4]pyrrolo[1,2-d][1,4]oxazepin-5-yl)benzonitrile] the value was 1.96 µM.
